According to US20070111265A1, “Ligands for mineralocorticoid receptor (MR) and methods for screening for or designing MR ligands” (Van Andel Research Institute, priority 2005, published 2007):
“Also recorded” adds a separate entry of the source.

Assays:
GR Q642L/P637S = biological target: T1, GR Q642L/P637S (Homo sapiens, UniProt P04150, P637S/Q642L); assay: MMTV luciferase reporter assay in Cos-7 cells; format: cell-based; conditions: additional mutation of P637S
T1 construct: reverse mutations in the full length GR receptor (P637S and Q642L); expressed in transfected cells; host or cells: Cos-7
T1 sequence (P04150 1-777 P637S/Q642L): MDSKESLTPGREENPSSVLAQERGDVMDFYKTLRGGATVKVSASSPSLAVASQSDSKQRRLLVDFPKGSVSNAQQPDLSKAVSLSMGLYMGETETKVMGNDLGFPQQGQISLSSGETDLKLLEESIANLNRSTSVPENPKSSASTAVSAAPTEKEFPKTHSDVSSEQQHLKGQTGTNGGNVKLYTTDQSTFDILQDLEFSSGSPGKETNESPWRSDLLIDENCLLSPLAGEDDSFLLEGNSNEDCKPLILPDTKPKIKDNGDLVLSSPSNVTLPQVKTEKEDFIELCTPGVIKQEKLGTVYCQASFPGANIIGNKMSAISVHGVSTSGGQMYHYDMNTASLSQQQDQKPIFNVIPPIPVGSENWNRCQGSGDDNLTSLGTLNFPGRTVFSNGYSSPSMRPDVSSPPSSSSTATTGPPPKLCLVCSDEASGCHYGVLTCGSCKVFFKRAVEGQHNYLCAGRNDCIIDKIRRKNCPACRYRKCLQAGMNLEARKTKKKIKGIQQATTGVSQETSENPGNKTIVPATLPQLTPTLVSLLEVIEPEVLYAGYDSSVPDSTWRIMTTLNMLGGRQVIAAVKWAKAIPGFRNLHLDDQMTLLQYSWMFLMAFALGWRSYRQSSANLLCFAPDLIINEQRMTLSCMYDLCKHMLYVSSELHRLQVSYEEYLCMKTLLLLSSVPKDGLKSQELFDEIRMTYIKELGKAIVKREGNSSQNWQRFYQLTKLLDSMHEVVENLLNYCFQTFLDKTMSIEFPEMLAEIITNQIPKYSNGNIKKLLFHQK
Experimental: (§1) Cos-7 cells were maintained in DMEM containing 10% fetal bovine serum (FBS) and were transiently transfected using Lipofectamine 2000 (Invitrogen). […] Cells were transfected in Opti-MEM with 400 ng of MMTV-Luc reporter plasmid and 400 ng of receptor expression vector (pRS vector) encoding full-length GR and MR respectively (ATCC). […] Luciferase data were normalized to Renilla activity as an internal control.
(§2) To validate the role of the key MR pocket residues in hormone recognition, the inventors mutated S843 and L848 to the corresponding GR residues (S843P and L848Q) within the context of the full length wild type receptor. […] We also performed reverse mutations in the full length GR receptor (P637S and Q642L) and tested them in the same MMTV reporter.

MR L848Q/S843P = biological target: T2, MR L848Q/S843P (Homo sapiens, UniProt P08235, L848Q/S843P); assay: MMTV luciferase reporter assay in Cos-7 cells; format: cell-based; conditions: double mutation
T2 construct: (S843P and L848Q) within the context of the full length wild type receptor; expressed in transfected cells; host or cells: Cos-7
T2 sequence (P08235 1-984 S843P/L848Q): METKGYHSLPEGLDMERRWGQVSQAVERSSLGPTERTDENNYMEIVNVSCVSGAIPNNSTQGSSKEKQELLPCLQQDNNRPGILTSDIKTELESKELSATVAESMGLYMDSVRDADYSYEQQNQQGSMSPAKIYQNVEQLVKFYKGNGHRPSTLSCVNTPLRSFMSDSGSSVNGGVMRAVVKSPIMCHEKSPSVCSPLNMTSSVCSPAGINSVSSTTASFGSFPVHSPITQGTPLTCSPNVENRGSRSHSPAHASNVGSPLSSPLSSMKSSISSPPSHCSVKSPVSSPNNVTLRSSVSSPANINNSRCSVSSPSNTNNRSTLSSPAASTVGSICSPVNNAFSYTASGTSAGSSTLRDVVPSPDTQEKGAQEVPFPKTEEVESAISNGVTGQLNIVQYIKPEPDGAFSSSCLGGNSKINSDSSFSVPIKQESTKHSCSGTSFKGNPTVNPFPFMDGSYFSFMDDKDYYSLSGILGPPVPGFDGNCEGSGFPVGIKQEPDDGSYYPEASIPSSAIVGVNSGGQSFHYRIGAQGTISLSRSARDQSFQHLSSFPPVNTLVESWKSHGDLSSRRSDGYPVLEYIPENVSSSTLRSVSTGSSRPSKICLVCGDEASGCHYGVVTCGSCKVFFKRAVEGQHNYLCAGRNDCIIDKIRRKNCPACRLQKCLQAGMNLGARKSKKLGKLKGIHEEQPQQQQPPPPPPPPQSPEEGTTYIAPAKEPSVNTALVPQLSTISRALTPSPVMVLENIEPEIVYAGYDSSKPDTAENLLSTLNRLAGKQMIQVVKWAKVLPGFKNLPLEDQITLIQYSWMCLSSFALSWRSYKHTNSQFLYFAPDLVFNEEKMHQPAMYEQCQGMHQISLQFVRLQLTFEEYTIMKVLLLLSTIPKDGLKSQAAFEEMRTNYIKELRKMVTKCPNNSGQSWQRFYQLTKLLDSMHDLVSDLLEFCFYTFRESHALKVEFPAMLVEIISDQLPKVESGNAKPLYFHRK
Experimental: as §1, §2

SMILES	activation of GR Q642L/P637S (GR Q642L/P637S)	activation of MR L848Q/S843P (MR L848Q/S843P)
C[C@]12CCC(=O)C=C1CC[C@@H]1[C@@H]2[C@@H](O)C[C@@]2(C)[C@H]1CC[C@]2(O)C(=O)CO [cortisol]	severely affects activation	totally abolished; also recorded: severely affects activation
C[C@]12C[C@H](O)[C@H]3[C@@H](CCC4=CC(=O)CC[C@@]43C)[C@@H]1CC[C@@H]2C(=O)CO [corticosterone]	severely affects activation	totally abolished; also recorded: severely affects activation
